US9249154B2, “Compounds and therapeutic use thereof for protein kinase inhibition” (priority 2008, dated 2016)
Where two headings read alike, the source gives them in different places.

Key:
[1] = tested on: Human Ovarian cancer (A2780); assay: In vitro anti-cancer cell activity (cellular toxicity, SRB and MTT methods, 72 hours); format: cell-based; details: read-out: In vitro anti-cancer cell activities IC50, Human Ovarian cancer (A2780)
[2] = tested on: Human Gastric Cancer (BGC-823); assay: as above; format: cell-based; details: read-out: In vitro anti-cancer cell activities IC50, Human Gastric Cancer (BGC-823)
[3] = tested on: Mouse Lung Cancer (3LL); assay: as above; format: cell-based; details: read-out: In vitro anti-cancer cell activities IC50, Mouse Lung Cancer (3LL)
[4] = tested on: transplanted human colon cancer HT-99; assay: Effects on HT99 transplanted nude mice; format: in vivo; details: 60 mg/kg ip, d0, 1; for RTV (relative tumor volume) / TV dn: X ± SD; for TV dn: dn = 17 days after drug treatment
[5] = tested on: Human colon cancer HT-29; assay: In vitro anti-cancer cell activity (cellular toxicity, SRB and MTT methods, 72 hours); format: cell-based; details: read-out: In vitro anti-cancer cell activities IC50, Human colon cancer HT-29

**Q.** Which results are given for “2-(4-chlorophenyl)-4-(3-α-thiapyranmethy)-thieno[2,3-d]pyridazine-7-carboxylic acid amide [Compound 11]”?
**A.** IC50 [1]: 11.8 µM; IC50 [2]: 9.24 µM; IC50 [3]: 8.43 µM; T/C [4]: 113.4%; RTV (relative tumor volume) [4]: 7.52 ± 0.26; TV dn [4]: 1224 ± 440 mm^3; IC50 [5]: 10.7 µM

**Q.** How did the T/C [4] turn out when `NC(=O)c1nnc(CC2CCNCC2)c2cc(-c3ccc(Cl)cc3)sc12` [Compound 5, 2-(4-chlorophenyl)-4-(4-piperidinemethy)-thieno[2,3-d]pyridazine-7-carboxylic acid amide] was run?
**A.** Its T/C is 96.5%.

**Q.** And the “RTV (relative tumor volume)” value [4]?
**A.** The value was 6.40 ± 0.

**Q.** What about the TV dn [4] of the same compound?
**A.** Its TV dn is 910 ± 0 mm^3.

**Q.** For `NC(=O)c1nnc(Cc2ccncc2)c2cc(-c3ccc(Cl)cc3)sc12` [Compound 13, 2-(4-chlorophenyl)-4-(4-pyridinemethy)-thieno[2,3-d]pyridazine-7-carboxylic acid amide], which IC50 [1] is on record?
**A.** The IC50 was 1.18 µM.

**Q.** And the IC50 [2]?
**A.** Its IC50 is 2.62 µM.

**Q.** And the IC50 [3]?
**A.** The IC50 was 1.24 µM.

**Q.** And the IC50 [5]?
**A.** The IC50 was 0.73 µM.

**Q.** With `NC(=O)c1nnc(Cc2cc[nH]c2)c2cc(-c3ccc(Cl)cc3)sc12` [Compound 14, 2-(4-chlorophenyl)-4-(3-pyrrolemethy)-thieno[2,3-d]pyridazine-7-carboxylic acid amide] as the compound, how does the IC50 [1] read?
**A.** The IC50 was 6.01 µM.

**Q.** What about the IC50 [2] of the same compound?
**A.** The IC50 was 30.5 µM.

**Q.** And the IC50 [3]?
**A.** The IC50 was 8.59 µM.

**Q.** And the IC50 [5]?
**A.** The IC50 was 16.8 µM.

**Q.** `NC(=O)c1nnc(Cc2ccoc2)c2cc(-c3ccc(Cl)cc3)sc12` [Compound 15, 2-(4-chlorophenyl)-4-(3-furanmethy)-thieno[2,3-d]pyridazine-7-carboxylic acid amide] was tested. Which IC50 [2] did it give?
**A.** Its IC50 is 2.25 µM.

**Q.** Which T/C [4] does the source give for `CN(C)C(=O)c1nnc(CC2CCCOC2)c2cc(-c3ccc(Cl)cc3)sc12` (centres unmarked) [Compound 19] here?
**A.** Its T/C is 68.3%.

**Q.** What about the “RTV (relative tumor volume)” value [4] of the same compound?
**A.** Its value is 4.53 ± 0.82.

**Q.** And the TV dn [4]?
**A.** Its TV dn is 663 ± 86 mm^3.

**Q.** For `NC(=O)c1nnc(CC2CCNC2)c2cc(-c3ccc(Br)cc3)sc12` (centres unmarked) [Compound 22], which T/C [4] is on record?
**A.** Its T/C is 70.7%.

**Q.** And the “RTV (relative tumor volume)” value [4]?
**A.** The value was 4.69 ± 0.71.

**Q.** What about the TV dn [4] of the same compound?
**A.** The TV dn was 714 ± 127 mm^3.

**Q.** With `NC(=O)c1nnc(CC2CCOC2)c2cc(-c3ccc(F)cc3)sc12` (centres unmarked) [Compound 23] as the compound, how does the IC50 ([3]; Mus musculus) read?
**A.** Its IC50 is > 100 µM.

**Q.** `NC(=O)c1nnc(CC2CCOC2)c2cc(-c3ccc(Cl)cc3)sc12` (centres unmarked) [Compound 24] was tested. Which IC50 ([1]; Homo sapiens) did it give?
**A.** The IC50 was > 100 µM.

**Q.** And the IC50 ([2]; Homo sapiens)?
**A.** The IC50 was 24.6 µM.

**Q.** And the IC50 ([3]; Mus musculus)?
**A.** The IC50 was > 100 µM.

**Q.** What about the IC50 ([5]; Homo sapiens) of the same compound?
**A.** The IC50 was > 100 µM.

**Q.** Which T/C [4] does the source give for `NC(=O)c1nnc(CC2CCNC2)c2cc(-c3ccc(Cl)cc3)sc12` (centres unmarked) [Compound 30] here?
**A.** The T/C was 57.0%.

**Q.** And the “RTV (relative tumor volume)” value [4]?
**A.** The value was 3.78 ± 1.09.

**Q.** What about the TV dn [4] of the same compound?
**A.** The TV dn was 482 ± 83 mm^3.

**Q.** Which T/C [4] does the source give for `NC(=O)c1nnc(CC2CCNC2)c2cc(-c3ccc(Cl)cc3)sc12` (centres unmarked) [Compound 31] here?
**A.** The T/C was 80.8%.

**Q.** What about the “RTV (relative tumor volume)” value [4] of the same compound?
**A.** Its value is 5.36 ± 1.94.

**Q.** What about the TV dn [4] of the same compound?
**A.** The TV dn was 785 ± 300 mm^3.

**Q.** With `NC(=O)c1nnc(Cc2cccnc2)c2cc(-c3ccc(F)cc3)sc12` [Compound 38] as the compound, how does the IC50 ([3]; Mus musculus) read?
**A.** The IC50 was 3.13 µM.

**Q.** How did the IC50 ([3]; Mus musculus) turn out when `CN(C)C(=O)c1nnc(Cc2ccoc2)c2cc(-c3ccc(Cl)cc3)sc12` [Compound 70] was run?
**A.** Its IC50 is > 100 µM.
